Measurements published in patent US20230357292A1, “MULTI-COORDINATE GOLD-PHOSPHINE COMPOUNDS AND METHOD OF USE” (University of Kentucky Research Foundation, priority 2020, published 2023).

What was measured:
MDA-MB-231 cells [1] = settings: TMRE or JC-1 assay, short exposure periods
Description: MDA-MB-231 cells were plated at a density of 5×10^5 cells/plate in a 6 well plate and allowed to adhere overnight at 37° C. […] The cells were incubated (37° C., 5% CO2) for 1 h at this concentration. Carbonyl cyanide 3-chlorophenylhydrazone (CCCP) was prepared as a stock in DMSO and added at a final concentration of 100 μM, and the cells were treated for 1 h. It was used as a positive control. After the indicated treatment time, a working solution of the JC-1 dye (Cayman Chemicals, Cat. #15003) was prepared by adding 100 μL of dye into 900 μL of DMEM. Note: the working solution of JC-1 should always be prepared fresh and not stored for long-term use. Then, 100 μL/mL of working solution of the JC-1 dye was added to the cells and incubated at 37° C. for 20 minutes. The cells were harvested and resuspended in 2 mL PBS. The cells were analyzed on a flow cytometer with 488 nm excitation and appropriate emission filters. Gated cells, excluded debris and the CCCP-treated sample was used to performed standard compensation.

MDA-MB-231 cells [2] = assay: Western blotting of apoptotic markers and AMPK; settings: 1 μM, indicated times
Description: Furthermore, to determine if AuPhos-89 induces apoptosis through the caspase-mediated apoptotic pathway, western blotting was performed to assess the induction of caspases and cleaved PARP (FIG. 7C). […] Global changes in proteins were investigated using quantitative proteomics after 12 h of exposing MDA-MB-231 cells to AuPhos-89 at 1 μM. In this tandem mass tag (TMT)-based quantification, protein was extracted from cryo-preserved cell pellets and following tryptic digestion, TMT-labeling was performed. After fractionation, tandem LC-MS/MS was conducted and database search against HUMAN protein database was carried out. Proteins of relative quantification were divided into two categories. A quantitative ratio over 1.5 was considered upregulation while a quantitative ratio less than 1/1.5 was considered as downregulation.

H460 (lung) = settings: H460 (lung), 4,000 cells/well, treated 72 h, mean ± SD (n = 3)
Description: (§1) All cell lines (OVCAR8, A2780, H460, and MDA-MB-231) were cultivated in RPMI or DMEM supplemented with 10% FBS, 1% penicillin/streptomycin, and 1% amphotericin. All cells were grown at 310K in a humidified atmosphere containing 5% CO2.
(§2) Various established human ovarian, lung, and breast cancer cell lines were seeded in 96-well plates (4000 cells/well) and were incubated with RPMI 1640 or DMEM (100 μL) supplemented with 10% FBS, 1% penicillin/streptomycin, and 1% amphotericin for 24 h and at 37° C. They were then treated with AuPhos compounds at increasing concentrations for 72 h from stock solutions following serial dilutions, in which AuPhos stock solutions were prepared in DMSO/media mixture (% v/v=20:80). Thereafter, cellular viability was assessed via the established crystal violet colorimetric assay. In brief, cells were fixed with 50 μL of a 1% glutaraldehyde solution and placed in an incubator (37° C., 5% CO2) for 1 hour. The plates were washed with water by running them under a gentle flow of tap water. The plates were air-dried, and crystal violet reagent was added to each well and allowed to incubate at room temperature for 20 min. The plates were washed with water and dried again. Methanol (200 μL/well) was added to each well, and the measurements of absorbance were subsequently performed using a Biotek Synergy H1 Plate Reader at 570 nm (peak absorbance).

A2780 (ovarian) = settings: A2780 (ovarian), 4,000 cells/well, treated 72 h, mean ± SD (n = 3)
Description: as §1, §2

OVCAR8 (ovarian) = settings: OVCAR8 (ovarian), 4,000 cells/well, treated 72 h, mean ± SD (n = 3)
Description: as §1, §2

[3] = 10 mM in DMSO-d6, 24 h
Description: Stock solutions comprised of a 1 mL, 20 mM solution of AuPhos-89 in DMSO-d6. The solution of L-GSH (20 mM) was sonicated for 5 minutes to dissolve the reagent in DMSO-d6. 1 mL of each solution were mixed in a 1:1 ratio to produce a final concentration of 10 mM in DMSO-d6. The solution was then analyzed by 1H NMR spectroscopy. The solution was further analyzed at different time intervals, t=1 h, 6 h, 12 h, and 24 h.

MDA-MB-231 cells [4] = settings: 1 μM for 15 h, FACS
Description: MDA-MB-231 cells were seeded at a density of 5×10^5 cells/well in a 6-well clear bottom plate with a final media volume of 2 mL. The cells were allowed to adhere overnight at 37° C. A stock of AuPhos-89 was prepared fresh in DMSO/DMEM (% v/v=20:80) and added to the desired well at a concentration of 1 μM with a final volume of 2.5 mL and incubated for 15 h at 37° C. A stock of H2O2 was prepared in PBS and the cells treated at a final concentration of 2 mM for 3 hours and used as positive control. When ready for analysis, medium was removed and the wells washed with 5 mL of PBS. The cells were trypsinized (1 mL), 5 mL of DMEM were added to each well, and total volume collected and centrifuged to pellet the cells. The cells were resuspended in 2 mL of fresh media, counted, and reconstituted to a concentration of 1×10^5 cells/mL. The cells were centrifuged again, and the pellet suspended in 500 μL of Annexin binding buffer. To each sample was added 5 μl of Annexin V-FITC and 5 μl PI and incubated in the dark at room temperature for 5 minutes. The samples were then subjected to FACS analysis.

[5] = test system: 4T1 cells engineered to express RFP; settings: 10 mg kg−1 day−1, six treatments, thrice a week, compared with controls
Source text: Murine TNBC 4T1 cells engineered to express RFP were also subcutaneously injected into flanks of immunocompromised mice in the presence of Matrigel.

MDA-MB-231 cells [6] = settings: live MDA-MB-231 cells, mito-stress test
Description: (§3) Analysis. The initial step of Seahorse XF96 analysis included optimization of the cell density. In this stage, isolated mitochondria (30 μg) or MDA-MB-231 cells were seeded at a range of densities from 2000 cells/well to 100,000 cells/well, followed by optimization of the FCCP injection concentration used (0.6 μM of 1.2 μM). […] All Seahorse XF96 experiments with MDA-MB-231 were performed under these conditions. The cells were seeded the night prior to the experiment with a final volume of 100 μL and incubated overnight at 37° C. AuPhos-89 was prepared as a stock in DMSO/DMEM (% v/v=20:80) and diluted to a working concentration of 100 μM with Seahorse XF96 assay buffer and then subsequently serial diluted by 10× to achieve multiple concentrations. The assay was performed using a pneumatic injection method of AuPhos-89, with the final injection concentrations of 0.01, 0.1, 1, and 10 μM. This was followed by injection of oligomycin (1.5 μM), FCCP (0.6 μM) and rotenone/antimycin A (0.5 μM).

[7] = test system: isolated mitochondria from the liver of C57BL/6J mice; settings: 1 μM, in the presence of oligomycin; dose-dependent up to about 10 μM
Description: as §3

Description for 4T1 tumor: Female, 5 week-old BALB/c mice were purchased from Charles River Laboratories (Wilmington, MA). All mice were quarantined for 1 week prior to use and kept in micro-isolator cages (four mice per cage) in a temperature- and humidity-controlled environment as per the Division of Laboratory Animal Research (DLAR) of University of Kentucky. All mice were maintained in a pathogen-free environment under the care of DLAR of University of Kentucky. The study was performed in compliance with the NIH guidelines (NIH Publication No. 85-23 Rev. 1985) for the care and use of laboratory animals and all experimental procedures were monitored and approved by the Institutional Animal Care and Use Committee (IACUC) of University of Kentucky (USA).
The control group was injected with a PBS solution containing 1% DMSO and 1% Kolliphor.
A separate group of mice was administered equal volumes of vehicle control at the same time points and via the analogous route.

For `[Cl-].[Cl][Au-]1([c]2ccccc2-c2ccccn2)[P+](c2ccccc2)(c2ccccc2)c2ccccc2[P+]1(c1ccccc1)c1ccccc1` [AuPhos-89, (2-phenylpyridine)[1,2-Bis(diphenylphosphino)benzene]gold(III) Dichloride], the “mitochondrial membrane potential (MMP)” value (MDA-MB-231 cells [1]) was “depolarization of the MMP”, the “induction of caspases, cleaved PARP and AMPK” value (MDA-MB-231 cells [2]) was “activate cleaved caspases, PARP and the cellular energy regulator, AMPK” and the tumor growth rate (4T1 tumor; 10 mg kg−1 IV, 3 weekly injections, n=5, versus vehicle control) was “decreased significantly”. The body weight (4T1 tumor; end of the observation period) was “did not exhibit significant change”, the IC50 (H460 (lung)) was 720 ± 160 nM and the IC50 (A2780 (ovarian)) was 340 ± 70 nM. The IC50 (OVCAR8 (ovarian)) was 1160 ± 40 nM, the “stability with L-GSH, proton resonances” value [3] was “minimally altered” and the “population of cells in early to late apoptosis” value (MDA-MB-231 cells [4]) was ~40%. For the same molecule, the tumor growth [5] was “significant attenuation of growth”, the ATP production (MDA-MB-231 cells [6]) was “diminished ATP production” and the proton leak (MDA-MB-231 cells [6]) was “acutely induced proton leak”. For the same molecule, the “mitochondrial oxygen consumption rate (OCR)” value [7] was “increased oxygen consumption”.
